According to patent publication US8592401B2, “Methods and compounds for vitamin D therapy” (Proventiv Therapeutics, LLC, priority 2007, dated 2013):
Where two headings read alike, the source gives them in different places.

Columns and labels:
healthy male humans = details: cited from earlier work
[1] = tested on: rats having adenine-induced kidney failure; test: iPTH levels in rats having adenine-induced kidney failure; assay type: in vivo, Sprague Dawley rats; details: for suppression of serum PTH (iPTH) levels: adenine treated animals, i.v. 3×/week, after two weeks of dosing
Method: Soc. Neph., 17; 107-112]. After 4 weeks, normal diet was given to all animals. A control group receiving normal diet during the entire course of the study was used as normal control animals. After the 4 weeks of adenine diet treatment, animals were dosed i.v. […] Serum, plasma kidney and parathyroid gland were collected after 2 and 8 weeks. iPTH and FGF23 in plasma and serum, respectively, were measured using a commercial Elisa kit. Serum calcium was measured using an ORTHO-CLINICAL VITROS 250 chemistry system or an o-cresolphthalein complexone-based assay. Serum phosphorus was measured using an ORTHO-CLINICAL VITROS 250 chemistry system or an ammonium molybdate-based assay. Fibronectin 1 was measured by real-time PCR from cDNA isolated from kidney.
For reference, PTH values are also shown for animals in the study fed a normal diet (without adenine).
(§1) These findings indicate that L25-dihydroxyvitamin D2 appears to be less likely to cause calcemia than 1,25-dihydroxyvitamin D3 at doses that have equivalent efficacy.

[2] = tested on: rats having adenine-induced kidney failure; set-up: species or system Sprague Dawley rats; details: rat, in vivo, iv
Method: (§2) Soc. Neph., 17; 107-112]. After 4 weeks, normal diet was given to all animals. A control group receiving normal diet during the entire course of the study was used as normal control animals. After the 4 weeks of adenine diet treatment, animals were dosed i.v. 3×/week for 2 or 8 weeks with calcitriol or 1,25-dihydroxyvitamin D2 at 0.01, 0.05, 0.1, 0.25 and 0.5 mg/kg. Serum, plasma kidney and parathyroid gland were collected after 2 and 8 weeks. iPTH and FGF23 in plasma and serum, respectively, were measured using a commercial Elisa kit. Serum calcium was measured using an ORTHO-CLINICAL VITROS 250 chemistry system or an o-cresolphthalein complexone-based assay. Serum phosphorus was measured using an ORTHO-CLINICAL VITROS 250 chemistry system or an ammonium molybdate-based assay. Fibronectin 1 was measured by real-time PCR from cDNA isolated from kidney.
as §1

[3] = tested on: rats having adenine-induced kidney failure; test: Serum phosphorous in rats having adenine-induced kidney failure; assay type: in vivo, Sprague Dawley rats
Method: as §2

renal FN1 = test: Renal FN1 (fibronectin 1) expression by real-time PCR in adenine rats; assay type: in vivo, Sprague Dawley rats; set-up: extent of suppression of renal FN1 expression, compared to calcitriol-treated animals: dose or concentration left out as unconfirmed; details: after 12 days of treatment; for suppression of renal FN1 expression, comparison of the two compounds: 0.1 mg/kg
Method: as §2

Caco-2 cells = details: cited from earlier work
[4] = Stability of compounds in human intestine microsomes; assay type: in vitro ADME; details: microsomes 22 mg/ml, NADPH-generating system, 60 min, 37° C.
Method: Equal parts of 0.1 M phosphate buffer (pH 7.4), NADPH, G-6-P, and G-6-P dehydrogenase were mixed to create a NADPH-generating system, and the final concentration of NADPH, G-6-P, and G-6-P dehydrogenase were 0.8 mM, 8 mM and 0.8 U/ml.
1,25-dihydroxyvitamin D2 and calcitriol were added in to the NADPH-generating system. The final concentrations of the two vitamin D compounds were each […]. A reaction was initiated by the addition of the human intestine microsomes (22 mg/ml) after a 5 min pre-incubation of the reaction at 37° C. After incubation for 60 min, the reaction was terminated by addition of cold 100% acetonitrile. An aliquot of the samples was injected into HPLC to determine the % remaining of the compound.

C2BBe1 cells = test: Alkaline phosphatase and CYP24 in C2BBe1 cells (real-time PCR); assay type: cell-based; details: 100 nM, 10 nM, 8 hours at 37° C.
Method: C2BBe1 cells were treated with […], 100 nM, and 10 nM 1,25-dihydroxyvitamin D2 and calcitriol. Cells were incubated for 8 hours at 37° C. The cells were then lysed in 1 ml of TRIzol reagent. RNA was isolated from cell lysates through phase separation, as per the manufacturer's instructions (INVITROGEN). After cDNA synthesis, real-time PCR was used to quantify alkaline phosphatase and CYP24.

[5] = tested on: subjects with low serum 1,25-dihydroxyvitamin D; test: Study in subjects with low serum 1,25-dihydroxyvitamin D (Example 1); assay type: in vivo, human
Method: 1,25-dihydroxyvitamin D2 is used as a treatment for subjects with low serum 1,25-dihydroxyvitamin D in a study involving 50 adults, ages 18-85 years.
The subjects have serum 1,25-dihydroxyvitamin D levels below 20 pg/dL and complete an eight-week baseline period and then 24 weeks of therapy with orally administered 1,25-dihydroxyvitamin D2.
The initial dose of 1,25-dihydroxyvitamin D2 is 1.0 μg, with increases in steps of 0.5 μg/day permitted after four weeks. The maximum dosage is limited to 5.0 μg/day of 1,25-dihydroxyvitamin D2. Subjects are monitored at regular intervals for plasma iPTH, serum calcium and phosphorus, 24-hour and fasting urinary calcium, bone-specific serum markers, plasma total 1,25-dihydroxyvitamin D2 and routine blood chemistries and hematologies.

[6] = tested on: ESRD human patients undergoing chronic hemodialysis; assay type: in vivo
Source text: Up to 100 ESRD (End Stage Renal Disease) human patients undergoing chronic hemodialysis are studied in a multicenter, double-blind, placebo-controlled study. The selected patients reside in two major metropolitan areas within the continental U.S., have ages between 20 and 75 years, and have a history of secondary hyperparathyroidism. They have been on hemodialysis for at least four months, have a normal (or near normal) serum albumin, and have controlled serum phosphorus (often by using oral calcium phosphate binders).
On admission to the study, each patient is assigned at random to one of two treatment groups. One of these groups receives two consecutive 12-week courses of therapy with 1,25-dihydroxyvitamin D2; the other group receives one 12-week course of therapy with 1,25-dihydroxyvitamin D2 without interruption, by one 12-week course of placebo therapy. Each patient discontinues any 1α,25-dihydroxyvitamin D3 therapy for eight weeks prior to initiating 1,25-dihydroxyvitamin D2 therapy. Throughout this eight-week washout (or control) period and the two subsequent 12-week treatment periods, patients are monitored weekly for serum calcium and phosphorus. Serum intact PTH is monitored weekly or biweekly, and bone-specific serum markers, serum vitamin D metabolites, serum albumin, blood chemistries, hemoglobin and hematocrit are monitored at selected intervals.
During the study, patients undergo routine hemodialysis (three times per week) using a 1.24 mM calcium dialysate and ingest calcium phosphate binders (such as calcium carbonate or calcium acetate) in an amount sufficient to keep serum phosphate maintained in a range of 3.5 to 5.5 mg/dL. Patients who develop persistent mild hypercalcemia or mild hyperphosphatemia during the treatment periods reduce their 1,25-dihydroxyvitamin D2 dosage. […] Such patients are monitored at twice-weekly intervals until the serum calcium or phosphorus is normalized, and resume 1,25-dihydroxyvitamin D2 dosing.

DBP = target: T1, DBP (Homo sapiens, UniProt P02774); details: cited from earlier work
T1 sequence (P02774 17-474): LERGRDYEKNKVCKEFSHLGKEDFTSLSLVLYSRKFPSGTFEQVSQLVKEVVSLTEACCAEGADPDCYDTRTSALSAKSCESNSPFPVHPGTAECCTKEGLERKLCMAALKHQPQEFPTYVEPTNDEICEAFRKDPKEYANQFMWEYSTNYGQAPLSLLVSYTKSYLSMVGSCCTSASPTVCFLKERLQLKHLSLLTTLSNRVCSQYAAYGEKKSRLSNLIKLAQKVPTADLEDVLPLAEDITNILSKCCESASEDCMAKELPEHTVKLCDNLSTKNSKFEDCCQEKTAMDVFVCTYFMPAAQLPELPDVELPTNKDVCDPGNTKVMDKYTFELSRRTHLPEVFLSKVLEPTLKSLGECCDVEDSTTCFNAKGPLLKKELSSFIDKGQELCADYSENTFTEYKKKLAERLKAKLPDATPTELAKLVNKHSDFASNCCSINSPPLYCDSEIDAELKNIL

[7] = cited from earlier work
bone resorption = details: in vivo; cited from earlier work
[8] = tested on: markers of bone metabolism; details: in culture; cited from earlier work

## C=C1CC[C@H](O)C/C1=C/C=C1\CCC[C@]2(C)[C@@H]([C@H](C)CCCC(C)C)CC[C@@H]12 [Vitamin D3, cholecalciferol]
Healthy male humans; 50,000 IU
  time of peak of 25-hydroxyvitamin D3 levels: 14 days

## C=C1/C(=C\C=C2/CCC[C@]3(C)[C@@H]([C@H](C)CCCC(C)(C)O)CC[C@@H]23)C[C@@H](O)C[C@@H]1O [calcitriol, 1α,25-dihydroxyvitamin D3]
[1]; Rattus norvegicus, read-out: PTH inhibition
  inhibition at 0.0001 mg/kg: ~13.6%
[1]
  suppression of serum PTH (iPTH) levels: in a dose dependant manner can suppress serum PTH levels
[2]; Sprague Dawley
  doses showing significant elevation of serum calcium: greater than 0.10 μg/kg
[3]; rat, in vivo, iv
  elevation of serum phosphorous: significant elevation of phosphorous at the two highest doses
Renal FN1
  suppression of renal FN1 expression, comparison of the two compounds: No difference in suppression
Caco-2 cells
  stimulation of calcium transport: 934%

## C=C1/C(=C\C=C2/CCC[C@]3(C)[C@@H]([C@H](C)/C=C/[C@H](C)C(C)(C)O)CC[C@@H]23)C[C@@H](O)C[C@@H]1O [1,25-dihydroxyvitamin D2]
[1]
  suppression of serum PTH (iPTH) levels: in a dose dependant manner can suppress serum PTH levels
[1]; dose of 0.05 μg/kg
  PTH inhibition: about 82.7%
[2]
  doses showing significant elevation of serum calcium: greater than 0.05 μg/kg
[3]; adenine rats, i.v. 3×/week, doses 0.01-0.5
  elevation of serum phosphorous: significance only at the highest dose
Renal FN1
  suppression of renal FN1 expression, comparison of the two compounds: No difference in suppression
  extent of suppression of renal FN1 expression, compared to calcitriol-treated animals: significantly greater
[4]
  metabolic stability (% remaining) in human intestinal microsomes: metabolically unstable
C2BBe1 cells
  induction of IAP (alkaline phosphatase) activity: not a potent inducer of IAP activity
[5]
  serum 1,25-dihydroxyvitamin D levels between doses: within the patients' normal historical physiological range
[6]; after initiation of dosing
  mean serum PTH relative to pretreatment levels: less than 50 % of pretreatment levels
[6]; end of the second 12-week treatment period
  mean serum PTH in the active group: remained controlled
[6]; human, in vivo
  hypercalcemia in patients exhibiting excessive suppression of serum PTH: transient mild hypercalcemia is observed
DBP
  DBP binding compared with 1,25-dihydroxyvitamin D3: no significant difference

## C[C@H](/C=C/[C@H](C)C(C)(C)O)[C@H]1CC[C@H]2/C(=C/C=C3C[C@@H](O)C[C@H](O)C3)CCC[C@]12C [19-nor-1,25-dihydroxyvitamin D2]
DBP
  affinity for DBP compared to 1,25-dihydroxyvitamin D3: 3 fold lower
[7]; healthy patients
  half-life: 4 to 6 h
[7]; patients with Stage 4 CKD
  half-life: 20 h
[7]; patients with chronic renal failure
  half-life: 15 h
Bone resorption
  potency in promoting bone resorption relative to 1,25-dihydroxyvitamin D3: approximately 10 fold less potent
Caco-2 cells
  stimulation of calcium transport: did not show a significant effect
[8]
  effects on VDR expression, suppression of cell proliferation, osteocalcin and alkaline phosphatase activity versus 1,25-dihydroxyvitamin D3: indistinguishable

## C=C1CC[C@H](O)C/C1=C/C=C1\CCC[C@]2(C)[C@@H]([C@H](C)/C=C/[C@H](C)C(C)C)CC[C@@H]12 [Vitamin D2, ergocalciferol]
Healthy male humans; 50,000 IU
  course of 25-hydroxyvitamin D2 levels: fell early and were not different from baseline at 14 days
Healthy male humans; healthy male humans
  potency relative to Vitamin D3: less than one-third as potent
